In patent publication US8541575B2, “3,4-diarylpyrazoles as protein kinase inhibitors” (Nerviano Medical Sciences S.R.L., priority 2008, dated 2013):

Columns and labels:
Format in all cases: cell-based
[1] = system: human melanoma cells Mewo (with wild-type B-Raf); experiment: In vitro cell proliferation assay, Mewo; details: 72 hours treatment, cellular ATP readout
Description: (§1) In Vitro Cell Proliferation Assay
(§2) Exponentially growing human melanoma cells A375 (with a mutated B-RAF) and human melanoma cells Mewo (with wild-type B-Raf) were seeded and incubated at 37° C. in a humidified 5% CO2 atmosphere. After 24 hours, scalar doses of the compound were added to the medium and cells oncubated for 72 hours. At the end of treatment, cells were washed and counted. Cell number was determined by a cellular adenosine triphosphate monitoring system. Cell proliferation was compared to control cells and the concentration inhibiting cell growth by 50% was calculated.

[2] = system: p-MAPK (T202/Y204) in A375 human melanoma cells, having a mutated B-RAF; experiment: p-MAPK (T202/Y204) ArrayScan assay; details: A-375, treated 1.5 or 2 hours, p-MAPK cytoplasmatic fluorescence, read-out: Array Scan A375 IC50
Description: p-MAPK (T202/Y204) ArrayScan Assay
A375 human melanoma cells, having a mutated B-RAF, are seeded in 384-well poly-lysine coated plates (Matrix) at a density of 1000 cells/well with appropriate medium supplemented with 10% FCS and incubated for 16-24 hours. Cells are treated for 1.5 or 2 hours with increasing doses of compounds (starting dose 10 μM, dilution factor 2.5). At the end of the treatment cells are fixed with p-formaldehyde 3.7% for 15-30 min, then washed twice with D-PBS […] and permeabilized with D-PBS containing 0.1% Triton X-100 and 1% BSA (Sigma-Aldrich) for 15 minutes at room temperature (staining solution). Anti-phospho-MAPK (T202/Y204) monoclonal antibody E10 (Cell Signaling, cat. #9106) diluted 1:100 is added in staining solution and incubated for 1 hour at 37° C. After removal of the primary antibody solution, the anti-mouse Cy™2-conjugated (Green) secondary antibody (Amersham) diluted 1:500 in staining solution containing 2 μg/ml DAPI is added. The plate is incubated for 1 hour at 37° C., washed twice and then red with Cellomics' ArrayScan VTI (4 fields/well, CytoNucTrans algorithm).
The parameter “MEAN_RingAvgIntenCh2”, which measures the mean cytoplasmatic fluorescence intensity associated to p-MAPK staining, is reported as the final result.

[3] = system: human melanoma cells A375 (with a mutated B-RAF); experiment: In vitro cell proliferation assay, A375; details: A-375, 72 hours treatment, cellular ATP readout
Description: as §1, §2

Cn1cc(-c2ccncc2)c(-c2c(F)ccc(NS(=O)(=O)c3cc(F)ccc3F)c2F)n1 [compound 52, N-[3-(1-Methyl-4-pyridin-4-yl-1H-pyrazol-3-yl)-2,4-difluoro-phenyl]-2,5-difluoro-benzenesulfonamide]
IC50 [1]: > 10000 nM | IC50 [2]: < 10 nM | IC50 [3]: 160 nM

CC(C)C(=O)Nc1cc(-c2c[nH]nc2-c2cccc(NC(=O)Nc3ccc(C(F)(F)F)cc3)c2)ccn1 [compound 40, 2-methyl-N-(4-{3-[3-({[4-(trifluoromethyl)phenyl]carbamoyl}amino)phenyl]-1H-pyrazol-4-yl}pyridin-2-yl)propanamide]
IC50 [1]: > 10000 nM | IC50 [2]: 1750 nM | IC50 [3]: 3630 nM

Cc1ccc(NC(=O)Nc2cccc(-c3n[nH]cc3-c3ccncc3)c2)cc1 [compound 8, 1-[3-(4-Pyridin-4-yl-1H-pyrazol-3-yl)-phenyl]-3-p-tolyl-urea]
IC50 [1]: > 10000 nM | IC50 [2]: 1450 nM | IC50 [3]: 4480 nM

CCOC(=O)n1cc(-c2ccncc2)c(-c2cccc(NC(=O)Nc3ccc(C(F)(F)F)cc3)c2)n1 [Cmpd. 47, 4-Pyridin-4-yl-3-{3-[3-(4-trifluoromethyl-phenyl)-ureido]-phenyl}-pyrazole-1-carboxylic acid ethyl ester]
IC50 [1]: > 10000 nM | IC50 [2]: 750 nM | IC50 [3]: 2660 nM

CCn1cc(-c2ccncc2)c(-c2c(F)ccc(NS(=O)(=O)c3cc(F)ccc3F)c2F)n1 [Cmpd. 51, N-[3-(1-Ethyl-4-pyridin-4-yl-1H-pyrazol-3-yl)-2,4-difluoro-phenyl]-2,5-difluoro-benzenesulfonamide]
IC50 [1]: > 10000 nM | IC50 [2]: < 10 nM | IC50 [3]: < 20 nM

Nc1nccc(-c2c[nH]nc2-c2cccc(NC(=O)Nc3ccc(C(F)(F)F)cc3)c2)n1 [compound 31, 1-{3-[4-(2-aminopyrimidin-4-yl)-1H-pyrazol-3-yl]phenyl}-3-[4-(trifluoromethyl)-phenyl]urea]
IC50 [1]: > 10000 nM | IC50 [2]: 730 nM | IC50 [3]: 2700 nM

O=S(=O)(Nc1ccc(F)c(-c2n[nH]cc2-c2ccncc2)c1F)c1ccco1 [Cmpd. 20, Furan-2-sulfonic acid [2,4-difluoro-3-(4-pyridin-4-yl-1H-pyrazol-3-yl)-phenyl]amide]
IC50 [1]: > 10000 nM | IC50 [2]: 5480 nM | IC50 [3]: 9140 nM

O=S(=O)(Nc1ccc(F)c(-c2n[nH]cc2-c2ccncc2)c1F)c1cc(F)ccc1F [Cmpd. 18, N-[2,4-Difluoro-3-(4-pyridin-4-yl-1H-pyrazol-3-yl)-phenyl]-2,5-difluoro-benzenesulfonamide]
IC50 [1]: > 10000 nM | IC50 [2]: 360 nM | IC50 [3]: 720 nM

O=C(Nc1ccc(C(F)(F)F)cc1)Nc1cccc(-c2n[nH]cc2-c2ccncc2)c1 [Cmpd. 1, 1-[3-(4-Pyridin-4-yl-1H-pyrazol-3-yl)-phenyl]-3-(4-trifluoromethyl-phenyl)-urea]
IC50 [1]: 8600 nM | IC50 [2]: 930 nM | IC50 [3]: 1020 nM

CCNc1cc(-c2c[nH]nc2-c2c(F)ccc(NS(=O)(=O)c3cc(F)ccc3F)c2F)ccn1 [compound 54, N-{3-[4-(2-Ethylamino-pyridin-4-yl)-1H-pyrazol-3-yl]-2,4-difluoro-phenyl}-2,5-difluoro-benzenesulfonamide]
IC50 [1]: > 10000 nM | IC50 [2]: 310 nM | IC50 [3]: 970 nM
